This note sets out measurements from patent publication US20150344407A1, “FENDILINE DERIVATIVES AND METHODS OF USE THEREOF” (THE BOARD OF REGENTS OF THE UNIVERSITY OF TEXAS SYSTEM, priority 2012, published 2015).

Each structure is given as a SMILES string. Where a name gives a salt, the structure may show the parent alone.

The test system of test [1] is phosphorylated ERK, a protein activated downstream of K-ras. Kind of test: Western immunoblotting for pERK (inhibition of ERK activation). The format is cell-based, canine. As to conditions: Canis lupus familiaris; 4 μM compound, 48 hours, MDCK cells stably expressing GFP-tagged K-rasG12V; whole cell lysates; normalized to vehicle-treated control; read-out: % Inhibition of ERK activation when treated with 4 μM compound. The method, then:
(§1) To determine the effect of compounds on localization of K-ras, Mardine Darby canine kidney epithelial (MDCK) cells stably expressing GFP-tagged K-rasG12V (oncogenic K-ras) grown on cover slips were treated with vehicle or compound (4 μM) for 48 hours and fixed with 4% paraformaldehyde. The coverslips were mounted in Mowiol and imaged by confocal microscopy (Nikon A1) using a 60× objective. Images were analyzed by ImageJ software. Densitometric analysis was performed on images to determine the degree of K-ras mislocalization. To determine the effect of compounds on K-ras function, MDCK cells stably expressing GFP-tagged K-rasG12V were treated with vehicle or compound (4 μM) for 48 hours. Following treatment, whole cell lysates were prepared and subjected SDS-PAGE and western blotting to quantify the level of phosphorylated ERK, a protein activated downstream of K-ras. All calculations were normalized to vehicle-treated control.
Western Immunoblotting for pERK: 2×10^5 cells/well were seeded in 6-well cell culture plates. 24 h after seeding, fresh medium containing 1% vehicle (DMSO) or 4 μM test compound (1:100 dilution, such that DMSO was 1%) was added and incubated for 48 h. Cells were lysed in Buffer B (50 mM Tris [pH 7.5], 75 mM NaCl, 25 mM NaF, 5 mM MgCl2, 5 mM EGTA, 1 mM dithiothreitol, 100 μM NaVO4, 1% Nonidet P-40 plus protease inhibitors). SDS-PAGE and immunoblotting with the anti-phospho-p44/42 mitogen-activated protein kinase (MAPK) (ERK1/2) antibody was performed using 20 μg of each whole cell lysate. Signal was detected by enhanced chemiluminescence (SuperSignal; Pierce, Thermo Fisher Scientific, Rockford, Ill.) and imaged by FluorChemQ (Alpha Inotech, San Leandro, Calif.). Quantification of intensities was performed using FluorChemQ software. Results were normalized to vehicle-treated control.
Background: Immunoblotting shows a protein as a band on a membrane.

The target in test [2] is T1, GFP-tagged K-rasG12V (oncogenic K-ras) in MDCK cells (Homo sapiens, UniProt P01116, G12V).
T1 construct: mGFP-tagged full length oncogenic mutant K-Ras (GFP-K-RasG12V); expressed in transfected cells
The test can be described thus: K-ras mislocalization, confocal fluorescence microscopy with densitometric analysis. Particulars: 48 hours, MDCK cells stably expressing GFP-tagged K-rasG12V, normalized to vehicle-treated control; for inhibition at 4 µM: 4 μM compound, read-out: % Mislocalization of K-ras when treated with 4 μM compound. It is filed as cell-based, canine. The method, then: FIGS. 1 & 2—Representative images showing degree of K-ras mislocalization with compound treatment (images corresponds with column 3 of Table 2). MDCK cells stably expressing GFP-tagged K-rasG12V were treated with vehicle or compound (4 μM) for 48 hours and fixed with 4% paraformaldehyde. The coverslips were mounted in Mowiol and imaged by confocal microscopy (Nikon A1) using a 60× objective. The number above each image corresponds the fendiline derivative code.
as §1
Fluorescence microscopy: 2×10^5 or 1×10^5 cells/well were seeded in 6- or 12-well cell culture plates, respectively, containing glass coverslips. 24 h after seeding, fresh medium containing 1% vehicle (Dimethyl sulfoxide, DMSO) or 4 μM test compound (1:100 dilution, such that DMSO was 1%) was added and incubated for 48 h, following which the cells were fixed with 4% paraformaldehyde and coverslips were mounted in Mowiol. Cells were imaged in the GFP wavelength (488 nm) using a confocal microscope (Nikon A1) with 60× objective. Images were saved in tagged imaged file format (tiff) and analyzed by ImageJ software. The densitometric ratio of plasma membrane localized K-Ras versus total K-Ras was calculated and normalized to vehicle-treated control.

As to `C[C@@H](NC/C=C/c1ccc(-c2ccccc2)cc1)c1ccccc1` [Compound 31, (R,E)-3-([1,1′-biphenyl]-4-yl)-N-(1-phenylethyl)prop-2-en-1-amine], the inhibition at 4 µM in test [1] came out at 35.6%; in test [2] it was 6.36%.

For the molecule `C[C@@H](NCC1CCCCC1)c1ccccc1` [Compound 38, (R)—N-(cyclohexylmethyl)-1-phenylethanamine], the inhibition at 4 µM in test [1] came out at 32.7%; in test [2] it was 9.67%.

As to `CC(C)=CCC/C(C)=C/CC/C(C)=C/CN[C@H](C)c1ccccc1` [Compound 28, (2E,6E)-3,7,11-trimethyl-N—((R)-1-phenylethyl)dodeca-2,6,10-trien-1-amine], the inhibition at 4 µM was determined as 38% in test [1] and 34.9% in test [2].

For the molecule `C[C@@H](NC/C=C/c1ccccc1)c1ccc2ccccc2c1` [Compound 35, (R,E)-N-(1-(naphthalen-2-yl)ethyl)-3-phenylprop-2-en-1-amine], the inhibition at 4 µM is -21.6% in test [1] and 26.1% in test [2].

Turning to `COC(=O)[C@@H](NC/C=C/c1ccccc1)c1ccccc1` [Compound 39, (S)-methyl 2-(cinnamylamino)-2-phenylacetate], the inhibition at 4 µM in test [1] is -10.2%; in test [2] it was 6.72%.

As to `C[C@@H](NC/C=C(\c1ccccc1)c1ccc([N+](=O)[O-])cc1)c1ccccc1` [Compound 55, (R,E)-3-(4-nitrophenyl)-3-phenyl-N-(1-phenylethyl)prop-2-en-1-amine], the results for the inhibition at 4 µM in test [1] and in test [2] were -36.6% and 12.3%, respectively.

In the case of `C[C@H](OC/C=C/c1ccccc1)c1ccccc1` [Compound 25, (S,E)-(1-(cinnamyloxy)ethyl)benzene], the inhibition at 4 µM amounted to 56.8% in test [1] and 33.9% in test [2].

Regarding `C[C@H](NCCC(c1ccccc1)c1ccccc1)c1ccccc1.Cl` [Compound 09, (S)-3,3-diphenyl-N-(1-phenylethyl)propan-1-amine hydrochloride], in test [2], the “% Mislocalization of K-ras when treated with 4 μM compound” value came to 20.41%.

Turning to `C[C@@H](NCC=C(c1ccccc1)c1ccccc1)c1ccc([N+](=O)[O-])cc1` [Compound 47], the figures for the inhibition at 4 µM in test [1] and in test [2] were 70.6% and 34%, respectively.

For `CC(NCC=C(c1ccccc1)c1ccccc1)c1ccc(Br)cc1` (stereo not drawn) [Compound 26, N-(1-(4-bromophenyl)ethyl)-3,3-diphenylprop-2-en-1-amine], the inhibition at 4 µM in test [1] came to 43.5%; in test [2] it was 44.8%.

Consider `C[C@@H](NC/C=C(\c1ccccc1)c1ccc(N)cc1)c1ccccc1` [Compound 56, (R,E)-4-(1-phenyl-3-((1-phenylethyl)amino)prop-1-en-1-yl)aniline], for which the inhibition at 4 µM in test [1] is -191%; in test [2] it was 17.3%.

Regarding `CC(C)=CCC/C(C)=C/CN[C@H](C)c1ccccc1` [Compound 21, (R,E)-3,7-dimethyl-N-(1-phenylethyl)octa-2,6-dien-1-amine], the inhibition at 4 µM in test [1] was found to be 3.75%; in test [2], 8.29%.

`CC(OCCC(c1ccccc1)c1ccccc1)c1ccccc1` (stereo not drawn) [Compound 13]: the inhibition at 4 µM turned out to be 28.9% in test [1] and 32% in test [2].

`C[C@H](OCC=C(c1ccccc1)c1ccccc1)c1ccccc1` [Compound 23, (S)-(3-(1-phenylethoxy)prop-1-ene-1,1-diyl)dibenzene]: the inhibition at 4 µM in test [1] was -0.95%; in test [2], 10.3%.

As for `C[C@@H](NC(=O)CC(c1ccccc1)c1ccccc1)c1ccccc1` [Compound 03, (R)-3,3-diphenyl-N-(1-phenylethyl)propanamide], the inhibition at 4 µM in test [2] amounted to 25.8%.

Consider `C[C@H](NC(=O)CC(c1ccccc1)c1ccccc1)c1ccccc1` [Compound 04, (S)-3,3-diphenyl-N-(1-phenylethyl)propanamide], for which the inhibition at 4 µM in test [2] came to 9.73%.

With `C[C@@H](NCC=C(c1ccccc1)c1ccccc1)c1ccc(Br)cc1` [Compound 44, (R)—N-(1-(4-bromophenyl)ethyl)-3,3-diphenylprop-2-en-1-amine], the inhibition at 4 µM in test [1] and in test [2] was 38.1% throughout.

In the case of `O=C(CC(c1ccccc1)c1ccccc1)NCc1ccccc1` [Compound 05, N-benzyl-3,3-diphenylpropanamide], the inhibition at 4 µM in test [2] came out at 4.01%.

For the molecule `C[C@@H](OCC=C(c1ccccc1)c1ccccc1)c1ccccc1` [Compound 22, (R)-(3-(1-phenylethoxy)prop-1-ene-1,1-diyl)dibenzene], the inhibition at 4 µM in test [1] was -14.4%; in test [2], 8.14%.

For `C[C@@H](NCC=C(c1ccccc1)c1ccccc1)c1ccc(F)cc1` [Compound 45, (R)—N-(1-(4-fluorophenyl)ethyl)-3,3-diphenylprop-2-en-1-amine], the figures for the inhibition at 4 µM in test [1] and in test [2] were 43.5% and 50%, respectively.

Turning to `C[C@@H](NCC=C(c1ccccc1)c1ccccc1)c1ccc(N)cc1` [Compound 48, (R)-4-(1-((3,3-diphenylallyl)amino)ethyl)aniline], the results for the inhibition at 4 µM in test [1] and in test [2] were 53.5% and 28.2%, respectively.

As for `CC(NCCCc1ccccc1)c1ccccc1` (stereo not drawn) [Compound 11, 3-phenyl-N-(1-phenylethyl)propan-1-amine hydrochloride], the inhibition at 4 µM in test [1] worked out at 42.9%; in test [2], 32.4%.

For `CC(C(=O)NCC(c1ccccc1)c1ccccc1)c1ccccc1` (stereo not drawn) [Compound 02], in test [2], the inhibition at 4 µM turned out to be 13.2%.

For `CC(NC(=O)CCc1ccccc1)c1ccccc1` (stereo not drawn) [Compound 06, 3-phenyl-N-(1-phenylethyl)propanamide], the inhibition at 4 µM in test [2] was determined as 28.9%.

In the case of `C[C@@H](NCCC(c1ccccc1)c1ccccc1)c1ccccc1.Cl` [Compound 08, (R)-3,3-diphenyl-N-(1-phenylethyl)propan-1-amine hydrochloride], in test [1], the inhibition at 4 µM turned out to be 38.2%. Besides, the “% Mislocalization of K-ras when treated with 4 μM compound” value in test [2] was 36.05%.

Consider `C[C@@H](NCC=C(c1ccccc1)c1ccccc1)c1ccccc1` [Compound 16, (R)-3,3-diphenyl-N-(1-phenylethyl)prop-2-en-1-amine], for which the inhibition at 4 µM was determined as 58.4% in test [1] and 39.3% in test [2].

Regarding `C[C@@H](NC/C=C/c1ccccc1)c1ccccc1` [Compound 18, (R,E)-3-phenyl-N-(1-phenylethyl)prop-2-en-1-amine], the inhibition at 4 µM is -2.54% in test [1] and 17.6% in test [2].

For the molecule `C[C@@H](NC/C=C(/c1ccccc1)c1ccc([N+](=O)[O-])cc1)c1ccccc1` [Compound 49, (R,Z)-3-(4-nitrophenyl)-3-phenyl-N-(1-phenylethyl)prop-2-en-1-amine], the figures for the inhibition at 4 µM in test [1] and in test [2] were 36.8% and 20.1%, respectively.

In the case of `c1ccc(CNCCC(c2ccccc2)c2ccccc2)cc1` [Compound 10, N-benzyl-3,3-diphenylpropan-1-amine], in test [2], the inhibition at 4 µM stood at 20.2%.

Consider `CC(NC(=O)CC(c1ccccc1)c1ccccc1)c1cccs1` (stereo not drawn) [Compound 14, 3,3-diphenyl-N-(1-(thiophen-2-yl)ethyl)propanamide], for which the inhibition at 4 µM in test [2] stood at 23.3%.

Take `CC(CNCC(c1ccccc1)c1ccccc1)c1ccccc1` (stereo not drawn) [Compound 07, N-(2,2-diphenylethyl)-2-phenylpropan-1 amine hydrochloride]: the inhibition at 4 µM in test [2] stood at 21.9%.

As for `CC(NCCC(c1ccccc1)c1ccccc1)c1cccs1` (stereo not drawn) [Compound 15, 3,3-diphenyl-N-(1-(thiophen-2-yl)ethyl)propan-1-amine hydrochloride], the inhibition at 4 µM in test [2] came to 25.1%.
